Converted amounts (≈) assume the structure as drawn.
Experiments:
[1] = tested on: Streptococcus faecalis ATCC 10541; assay: Antibacterial activity, agar dilution method, pH 7.0 (SF); type: cell-based; conditions: Enterococcus faecalis, ATCC10541, pH 7, read-out: minimum growth inhibitory concentration
Protocol: (§1) Antibacterial activities of some compounds covered by the present invention against various bacteria are shown by the minimum growth inhibitory concentration (μg/ml) in Table 1. The minimum growth inhibitory concentration was measured at pH 7.0 according to the agar dilution method. In the table, bacteria are indicated by the following letters.
SF: Streptococcus faecalis ATCC 10541

[2] = tested on: Staphylococcus aureus ATCC 6538P; assay: Antibacterial activity, agar dilution method, pH 7.0 (SA); type: cell-based; conditions: ATCC6538P, pH 7, read-out: minimum growth inhibitory concentration
Protocol: as §1
SA: Staphylococcus aureus ATCC 6538P

Bacillus subtilis 10707 = assay: Antibacterial activity, agar dilution method, pH 7.0 (BS); type: cell-based; conditions: Bacillus subtilis, 10707, pH 7, read-out: minimum growth inhibitory concentration
Protocol: as §1
BS: Bacillus subtilis 10707

[3] = tested on: Proteus vulgalis ATCC 6897; assay: Antibacterial activity, agar dilution method, pH 7.0 (PV); type: cell-based; conditions: pH 7, read-out: minimum growth inhibitory concentration
Protocol: as §1
PV: Proteus vulgalis ATCC 6897

[4] = tested on: Shigella sonnei ATCC 9290; assay: Antibacterial activity, agar dilution method, pH 7.0 (SS); type: cell-based; conditions: ATCC9290, pH 7, read-out: minimum growth inhibitory concentration
Protocol: as §1
SS: Shigella sonnei ATCC 9290

[5] = tested on: Klebsiella pneumoniae ATCC 10031; assay: microbe, parasite or virus in culture; type: cell-based; conditions: ATCC10031, pH 7, read-out: minimum growth inhibitory concentration
Protocol: The minimum growth inhibitory concentration was measured at pH 7.0 according to the agar dilution method. In the table, bacteria are indicated by the following letters.
KP: Klebsiella pneumoniae ATCC 10031

leukemia P-388 = assay: Anti-tumor activity against leukemia P-388; type: in vivo, mouse (CDF1); conditions: for ILS %: i.p. once, 33 days
Protocol: (§2) Ascites was sampled from the abdominal cavity of tumor-bearing mice (DBA/2) 7 days after transplantation of P-388 ascitic tumor. The number of the P-388 cells in the ascites was counted. A suspension of the tumor cells of 5×10^6 /ml was prepared using sterilized physiological saline, and 0.2 ml of the suspension (containing 1×10^6 cells) was intraperitoneally transplanted to CDF1 mice weighing 20 to 25 g. Twenty-four hours after the transplantation of the tumor, a test compound was intraperitoneally administered once to groups of the CDF1 mice, each group consisting of 6 mice. […] The effect of the compound was evaluated by a ratio of a mean survival days of the group treated with the compound to a mean survival days of the control group (untreated group) after 33 days of observation (Increased Life Span, ILS %).

Sarcoma 180 solid tumor = assay: Anti-tumor activity against Sarcoma 180 solid tumor in mice; type: in vivo, mouse (ddY strain); conditions: Mus musculus, Sarcoma-180, ip, 168 h; dose reducing tumor volume to 50% of control; intraperitoneal 24 hours after implantation; tumor measured 7 days after implantation
From the text: (§3) Taking some of the compounds falling within the present invention as examples, anti-tumor activity (ED50) against Sarcoma 180 solid tumor and acute toxicity (LD50) as well as effect on peripheral leucocytes number (WBC4000) are shown in Table 2.
(1) Effect against Sarcoma 180 solid tumor cells:
5×10^6 cells of Sarcoma 180 solid tumor were implanted into ddY mice. 7 days later, ascites cells were sampled. The cells were washed once with a sterilized physiological solution of sodium chloride and were used to prepare a cell supspension containing 5×10^7 cells per ml. On each occasion, 0.1 ml of the cell suspension was subcutaneously implanted into the right axilla of a male mouse (ddY strain; body weight 20±2 g). The test compound was dissolved in a physiological solution of sodium chloride with or without addition of Tween 80 and was administered intraperitoneally into each mouse of a group consisting of 5 mice at a dose of 0.1-0.2 ml, 24 hours after the implantation of the tumor cells.
The anti-tumor activity was determined in the following manner. 7 days after the implantation, the major axis (a) and the minor axis (b) of the tumor were measured to calculate a value of "a×b^2 /2" which corresponds to the volume of the tumor. The anti-tumor activity was expressed by the ratio of the volume of the tumors (T) of the group of animals administered with the test compound to the corresponding volume of tumors (C) of the untreated animals.
(2) Determination of ED50 :
On graph paper, T/C (the ratio of the volume of tumors of treated animals to that of control animals) was indicated by an arithmetic scale on the longitudinal axis and the administered amount of the test compound was indicated by a logarithmic scale on the lateral axis. The relationship between the dose and T/C was shown by a straight line determined by the method of least squares, from which a dose corresponding to T/C of 0.5 was obtained.

Acute toxicity in mice = assay: Acute toxicity in mice; set-up: species or system mouse (ddY strain); conditions: mouse, in vivo, ip; intraperitoneally once, ddY mice, 14 days observation, Beherns Kaerber's method
Protocol: as §3
Each animal of the test group consisting of 5 ddY mice was administered intraperitoneally once with a test compound. […] The LD50 was determined by Beherns Kaerber's method.

peripheral leucocytes = assay: Effect on the peripheral leucocytes number in tumor-carrying mice; type: in vivo, mouse (ddY strain); conditions: dose which reduces peripheral leucocytes number to 4000/mm^3; intraperitoneal, blood 4 days later
From the text: as §3
WBC4000 indicates the dose of a substance which reduces the peripheral leucocytes number to 4000/mm^3.
(4) Effect on the peripheral leucocytes number:
Sarcoma 180 solid tumor cells (5×10^6) were subcutaneously implanted into the right axilla of each mouse (body weight 20±2 g) of a group consisting of 5 male mice (ddY strain). 24 hours after implantation,a test compound was intraperitoneally administered to each animal. 4 days later, blood (each 0.02 ml) was collected from the suborbital plexus vein of each tumor-carrying animal. The collected sample of blood was dispersed in 9.98 ml of Cell-Kit Seven solution. One drop of saponin solution was added to the sample to dissolve erythrocytes and then a microcell counter was used to count the number of leucocytes. On graph paper, the number of leucocytes was indicated on the y-axis by an arithmetic scale and the dose of the test compound was indicated on the x-axis by a logarithmic scale. The relationship between the number of peripheral leucocytes and the dosage of the test compound was plotted and the dosage corresponding to 4000 peripheral leucocytes/mm^3 (about half the number of leucocytes of normal mice) was obtained. This value is denoted in Table 2 by WBC4000.

[6] = tested on: P-388 leukemia resistant to mitomycin C; assay: Anti-tumor activity against P-388 leukemia resistant to mitomycin C; type: in vivo, mouse (CDF1); conditions: for ILS %: i.p. once
Protocol: as §2

**Q.** With `C=C1C2=C(C(=O)C(C)=C(N=CN(C)C)C2=O)N2C[C@H]3[C@H](N3C)[C@]12O` (stereo partly shown) [Compound 1, 9a-O-Demethyl-7-N-dimethylaminomethylenemitomycin G] as the compound, how does the MIC [1] read?
**A.** 0.078 mg/L (≈ 0.238 µM)

**Q.** And the MIC [2]?
**A.** 0.078 mg/L (≈ 0.238 µM)

**Q.** And the MIC (Bacillus subtilis 10707)?
**A.** 0.078 mg/L (≈ 0.238 µM)

**Q.** And the MIC [3]?
**A.** 10 mg/L (≈ 30.5 µM)

**Q.** What about the MIC [4] of the same compound?
**A.** 10 mg/L (≈ 30.5 µM)

**Q.** What about the MIC [5] of the same compound?
**A.** 10 mg/L (≈ 30.5 µM)

**Q.** What about the ILS (leukemia P-388; dose 10 mg/kg, similar experiment) of the same compound?
**A.** 83%

**Q.** For `C=C1C2=C(C(=O)C(C)=C(N=CN(C)C)C2=O)N2C[C@@H]3N[C@@H]3[C@]12OC` [Compound 2, 1a-Demethyl-7-N-dimethylaminoethylenemitomycin G], which MIC [1] is on record?
**A.** 1.3 mg/L (≈ 3.96 µM)

**Q.** And the MIC [2]?
**A.** 0.31 mg/L (≈ 0.944 µM)

**Q.** What about the MIC (Bacillus subtilis 10707) of the same compound?
**A.** 0.078 mg/L (≈ 0.238 µM)

**Q.** And the MIC [3]?
**A.** 10 mg/L (≈ 30.5 µM)

**Q.** And the MIC [4]?
**A.** 20 mg/L (≈ 60.9 µM)

**Q.** What about the MIC [5] of the same compound?
**A.** 10 mg/L (≈ 30.5 µM)

**Q.** With `CC1=C(N=CN(C)C)C(=O)C2=C(C1=O)N1C[C@H]3[C@H](N3C)[C@]1(O)[C@H]2COC(N)=O` (stereo partly shown) [Compound 3a, 7-N-Dimethylaminomethylenemitomycin D] as the compound, how does the MIC [1] read?
**A.** 5 mg/L (≈ 12.8 µM)

**Q.** And the MIC [2]?
**A.** 10 mg/L (≈ 25.7 µM)

**Q.** What about the MIC (Bacillus subtilis 10707) of the same compound?
**A.** 2.5 mg/L (≈ 6.42 µM)

**Q.** And the MIC [3]?
**A.** 20 mg/L (≈ 51.4 µM)

**Q.** And the MIC [4]?
**A.** > 20 mg/L

**Q.** And the MIC [5]?
**A.** 2.5 mg/L (≈ 6.42 µM)

**Q.** What about the ED50 (Sarcoma 180 solid tumor) of the same compound?
**A.** 3.9 mg/kg

**Q.** And the LD50 at 336 h (Acute toxicity in mice)?
**A.** 8.3 mg/kg

**Q.** What about the WEC4000 (peripheral leucocytes) of the same compound?
**A.** 4.3 mg/kg

**Q.** And the “maximum increased life span” value (leukemia P-388; P-388, Table 3, maximum over doses)?
**A.** 213%

**Q.** What about the ILS % (leukemia P-388; dose 0.25 mg/kg) of the same compound?
**A.** 28%

**Q.** And the ILS % (leukemia P-388; dose 0.5 mg/kg)?
**A.** 53%

**Q.** What about the ILS % (leukemia P-388; dose 1.0 mg/kg) of the same compound?
**A.** 58%

**Q.** And the ILS % (leukemia P-388; dose 2.0 mg/kg)?
**A.** 58%

**Q.** What about the ILS % (leukemia P-388; dose 4.0 mg/kg) of the same compound?
**A.** 145%

**Q.** And the ILS % (leukemia P-388; dose 6.0 mg/kg)?
**A.** 213%

**Q.** And the ILS % (leukemia P-388; dose 8.0 mg/kg)?
**A.** 98%

**Q.** And the “anti-tumor activity against leukemia P-388 compared with Compound A” value (leukemia P-388; in words, versus Compound A)?
**A.** more excellent anti-tumor activity than Compound A

**Q.** And the “maximum increased life span” value ([6]; P-388 resistant to mitomycin C, Table 4, maximum over doses)?
**A.** 143%

**Q.** What about the ILS % ([6]; dose 1.0 mg/kg) of the same compound?
**A.** 28%

**Q.** What about the ILS % ([6]; dose 2.0 mg/kg) of the same compound?
**A.** 103%

**Q.** And the ILS % ([6]; dose 4.0 mg/kg)?
**A.** 143%

**Q.** What about the ILS % ([6]; dose 6.0 mg/kg) of the same compound?
**A.** 58%

**Q.** What about the ILS % ([6]; dose 8.0 mg/kg) of the same compound?
**A.** 51%

**Q.** With `CC1=C(N=CN(C)C)C(=O)C2=C(C1=O)N1C[C@H]3[C@H](N3C)[C@]1(O)[C@H]2COC(=O)N=CN(C)C` (stereo partly shown) [Compound 3b, 7-N,N^10-bis(dimethylaminomethylene)mitomycin D] as the compound, how does the ED50 (Sarcoma 180 solid tumor) read?
**A.** 20.9 mg/kg

**Q.** What about the LD50 at 336 h (Acute toxicity in mice) of the same compound?
**A.** 26.3 mg/kg

**Q.** And the WEC4000 (peripheral leucocytes)?
**A.** 18.7 mg/kg
